The METLIN SMRT retention time set (Domingo-Almenara et al. 2019)

Experiment: gradient 5% acetonitrile 3 min, to 50% in 2 min, to 85% in 15 min, held 3 min, 100 µL/min
Conditions: column: Zorbax Extend-C18 2.1 x 50 mm; eluents: water / acetonitrile, 0.1% formic acid
How it was run: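 Standards, all pure, were combined into mixtures of ~100 molecules and run at 100 μL/min on a Zorbax Extend-C18 column (2.1 × 50 mm, 1.8 μm) with water and acetonitrile, each containing 0.1% formic acid. A coupled quadrupole time-of-flight mass spectrometer operated in positive and negative ionization mode. Retention time values come from computationally picked adduct peaks, each inspected manually.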

## CCOC(=O)C1CCN(C(=O)C2(c3ccc(NS(C)(=O)=O)cc3)CCCCC2)CC1
  RP-LC retention time: 894 s

## CCCCN(C(=O)c1nc(C)n(C2CCN(S(C)(=O)=O)CC2)c1C)c1ccccc1
  RP-LC retention time: 666 s

## CCOc1ccc(S(=O)(=O)N2CCCC(C(=O)NCc3cccnc3)C2)cc1 (configuration not stated)
  RP-LC retention time: 650 s

## COc1ccc(-c2nc(-c3ccc4c(c3)oc(=O)n4C(C)C)no2)c(C)c1
  RP-LC retention time: 1270 s

## Cc1c(C(=O)Nc2ccnn2Cc2ccco2)oc2cc(Br)ccc12
  RP-LC retention time: 1020 s

## CCOC(=O)c1cn2nc(SCc3ccccc3)nc2nc1C
  RP-LC retention time: 1000 s

## COCC(=O)Nc1cccn2nc(C(C)C)nc12
  RP-LC retention time: 717 s

## CS(=O)(=O)N1CCN(Cc2nnnn2-c2ccc(Cl)cc2)CC1
  RP-LC retention time: 719 s

## CCn1nnc2ccc(-c3noc(CNC(=O)c4ccccc4)n3)cc21
  RP-LC retention time: 773 s

## CC(C)NC(=O)CN1CCN(c2cc(C(=O)O)c3cc(NC(=O)c4ccc(F)cc4)ccc3n2)CC1
  RP-LC retention time: 603 s

## Cc1ccc(NC(=O)c2cn(C)nc2S(=O)(=O)N2CCSCC2)cc1F
  RP-LC retention time: 981 s

## CC(C)N1CCN(S(=O)(=O)c2cc(-c3nnc(C4CCC4)o3)co2)CC1
  RP-LC retention time: 622 s

## Cc1ccc(CNC(=O)c2cn3cccc(C)c3n2)cc1
  RP-LC retention time: 686 s

## CCOc1ccccc1NC(=O)N1CCC(n2cnc3ccccc3c2=O)CC1
  RP-LC retention time: 801 s

## COCc1noc([C@@H]2CC(F)(F)CN2C(=O)c2c(C)noc2C)n1
  RP-LC retention time: 705 s

## COc1ccc(-c2nnc(CC(=O)N3CCOCC3)o2)cc1
  RP-LC retention time: 647 s

## Cc1cc(C)cc(NC(=O)NCCc2cn(CC(C)C)c3ncccc23)c1
  RP-LC retention time: 905 s

## Cn1c(=O)c(=O)n(C)c2cc(N3CCCCC3)c(NC(=O)CN3CCCCC3)cc21
  RP-LC retention time: 592 s

## Cc1cccnc1NC(=O)C1CCN(S(=O)(=O)c2cc(C(=O)N3CCCCCC3)cs2)CC1
  RP-LC retention time: 675 s

## CCN(Cc1nc2ccccc2n1C)c1ccccc1
  RP-LC retention time: 593 s

## CC(NC(=O)C1CCN(c2cnn(Cc3ccccc3)c(=O)c2)CC1)c1cccs1 (configuration not stated)
  RP-LC retention time: 789 s

## CC(NC(=O)c1sc2ncccc2c1-n1cccc1)c1ccc2c(c1)OCCO2 (configuration not stated)
  RP-LC retention time: 1020 s

## Cc1noc(-c2cccnc2N2CCCN(Cc3cc(F)cc(F)c3)CC2)n1
  RP-LC retention time: 659 s

## Cn1cc(CN2CCC(C(=O)N3CCCC3)CC2)c2cc(Cl)ccc21
  RP-LC retention time: 631 s

## Cc1ccc(-n2ncc3c(=O)n(Cc4nc(-c5ccc(F)c(Cl)c5)no4)cnc32)cc1
  RP-LC retention time: 1190 s

## O=C(NCc1ccccn1)C(=O)Nc1ccc(F)c(Cl)c1
  RP-LC retention time: 632 s

## Cc1cc(C(=O)NCc2ccco2)c2c(C)nn(-c3ccccc3Cl)c2n1
  RP-LC retention time: 860 s

## Cc1cccc(NC(=O)C2CCCN(S(=O)(=O)c3cc(-c4noc(C5CCC5)n4)cs3)C2)c1 (configuration not stated)
  RP-LC retention time: 1130 s

## COc1ccc(-c2nnc(Cc3nc(-c4cccc(F)c4)no3)o2)cc1OC
  RP-LC retention time: 911 s

## O=C1[C@H]2CN(Cc3cccc(OC(F)(F)F)c3)C[C@H]2C(=O)N1Cc1ccc2c(c1)OCO2
  RP-LC retention time: 969 s

## c1ccc(-c2nc[nH]c2-c2ccccc2)cc1
  RP-LC retention time: 696 s

## CC(C)c1ccc(-n2nc(N3CCN(C(=O)c4ccco4)CC3)ccc2=O)cc1
  RP-LC retention time: 842 s

## Cn1nccc1-c1cccc(-c2noc(-c3ccc(F)cc3F)n2)c1
  RP-LC retention time: 1120 s

## NC[C@@H]1O[C@H](c2ccccc2)Cc2c1ccc(O)c2O
  RP-LC retention time: 662 s

## CC(C)c1nc(-c2ccc(C(=O)N3CCN(c4nc5cccnc5o4)CC3)cc2)no1
  RP-LC retention time: 828 s

## CC1(C(=O)NCc2ccccc2)CN(S(C)(=O)=O)CC(=O)N1c1ccccc1F (configuration not stated)
  RP-LC retention time: 773 s

## CCN1CCC2(CC1)N=C(c1ccc(F)cc1)CC(c1cccc(OC)c1O)N2 (configuration not stated)
  RP-LC retention time: 592 s

## CCOc1ccc(-c2noc(CN3N=NC4C(=O)N(c5ccc(OC)cc5)C(=O)C43)n2)cc1OC (configuration not stated)
  RP-LC retention time: 924 s

## CC(C)n1cnc2cc(CNC(=O)Cc3ccccc3F)ccc21
  RP-LC retention time: 623 s

## CN1CCN(CCNC(=O)C2CCN(c3nc4cccnc4s3)CC2)CC1
  RP-LC retention time: 555 s

## COc1ccccc1N1CCN(S(=O)(=O)c2cc3c(s2)CCN(C(C)=O)C3)CC1
  RP-LC retention time: 838 s

## Cn1cc2c3c(cccc31)CN(C(=O)c1ccc(C#N)cc1)CC2
  RP-LC retention time: 884 s

## COc1ccc(C(C)NC(=O)c2cc(-c3ccccc3)cn2C)cc1OC (configuration not stated)
  RP-LC retention time: 963 s

## Cc1ccc(C)c(-c2cc3c4nn(CC(=O)NCc5ccco5)c(=O)n4ccn3n2)c1
  RP-LC retention time: 883 s

## O=C(C1CCCC1)N1CC(c2nc(-c3ccccc3)no2)C2(CCOCC2)C1 (configuration not stated)
  RP-LC retention time: 923 s

## Cc1cnc(CC2CCN(S(=O)(=O)c3cccc(F)c3)C2)n1C(C)C (configuration not stated)
  RP-LC retention time: 671 s

## O=C1CC(c2noc(-c3ccc4c(c3)OCO4)n2)CN1c1ccc(F)c(Cl)c1 (configuration not stated)
  RP-LC retention time: 1010 s

## Cc1cccc(CNC(=O)C2CCN(Cc3cn(C)c4ccc(Cl)cc34)CC2)c1
  RP-LC retention time: 757 s

## Cc1ccc(Cn2c(N3CCCC(C(=O)NCCC(C)C)C3)nc3ccsc3c2=O)cc1 (configuration not stated)
  RP-LC retention time: 1030 s

## Cc1ccc(-c2csc(NC(=O)CCCOc3ccccc3C)n2)cc1
  RP-LC retention time: 1300 s

## CC(C)c1ccc(-c2ccnc3c(C(=O)NCc4cccnc4)cnn23)cc1
  RP-LC retention time: 723 s

## CCCNC(=O)N1CCN(c2cc(-c3ccc(OC)c(OC)c3)ncn2)CC1
  RP-LC retention time: 601 s

## CC(C)c1cccc(NC(=O)C2CCN(C(=O)c3ncn4c3COC(c3ccc(F)cc3)C4)CC2)c1 (configuration not stated)
  RP-LC retention time: 931 s

## COc1ccc(CNC(=O)C2CCCN2S(=O)(=O)c2cc3c(cc2C)NC(=O)CO3)cc1 (configuration not stated)
  RP-LC retention time: 728 s

## COc1ccc(OC)c(NC2=NS(=O)(=O)C(c3ccc(F)cc3)=C2C)c1
  RP-LC retention time: 880 s

## CCS(=O)(=O)Nc1ccc(-c2noc(-c3ccc4c(c3)OCO4)n2)cc1
  RP-LC retention time: 954 s

## Cc1ccc(NC(=O)C2CCCN(c3nc4c(s3)c(C)nn4-c3cccc(F)c3)C2)c(C)c1 (configuration not stated)
  RP-LC retention time: 1280 s

## O=C(Nc1nc(-c2ccccc2)cs1)C1Cc2ccccc2CN1S(=O)(=O)c1cccs1 (configuration not stated)
  RP-LC retention time: 1160 s

## COc1ccc(C)cc1N(C)C(=O)Cn1ccc2c(=O)n(C)c(=O)n(C)c21
  RP-LC retention time: 714 s

## CCOC(=O)CCC(=O)Nc1nnc(-c2sc(C)nc2C)o1
  RP-LC retention time: 621 s

## CCCCN1C(=O)C(CC(=O)N2CCOCC2)Sc2ncccc21 (configuration not stated)
  RP-LC retention time: 708 s

## Cc1ccc(CN2CCN(C3CCN(C(=O)Nc4ccc(C)c(F)c4)CC3)C(=O)C2=O)cc1
  RP-LC retention time: 817 s

## Cc1ccc(NC(=O)C2CCN(C(=O)c3ncn4c3COC(c3ccc(F)cc3)C4)CC2)c(C)c1 (configuration not stated)
  RP-LC retention time: 832 s

## COC(=O)c1c(-c2ccc(C)cc2)csc1NC(=O)C1CCN(C(C)=O)CC1
  RP-LC retention time: 932 s

## Cc1nn(CC(=O)NCCN(C)C2CCCCC2)c(=O)c2c(C)n(-c3ccccc3)nc12
  RP-LC retention time: 653 s

## Cc1cc(-c2ccc(N3C(=O)CC4(CCCC4)C3=O)c(C)c2)ccc1N1C(=O)CC2(CCCC2)C1=O
  RP-LC retention time: 1170 s

## CCCCN(C)C(=O)C1CCCN(c2nnc(C)c3c(C)n(-c4ccc(Cl)cc4)nc23)C1 (configuration not stated)
  RP-LC retention time: 782 s

## Cn1cc(C2=CCN(S(=O)(=O)Cc3ccccc3)CC2)c2cccnc21
  RP-LC retention time: 898 s

## CN(CCCNC(=O)C1c2ccccc2C(=O)N(C)C1c1cccs1)Cc1ccccc1 (configuration not stated)
  RP-LC retention time: 645 s

## O=c1c2sccc2n(Cc2nc(-c3ccc(Cl)cc3)no2)c(=O)n1-c1cccc(F)c1
  RP-LC retention time: 1070 s

## Cc1ccc(CN2CCC(CNC(=O)CSc3nc4ccccc4n(C)c3=O)C2)cc1 (configuration not stated)
  RP-LC retention time: 634 s

## CN1C(=O)c2cc(C(=O)NCc3cccc(Br)c3)nn2CC1(C)C(=O)NC1CCCC1 (configuration not stated)
  RP-LC retention time: 807 s

## CCn1ncc(CN2CC(c3nc(CCOCc4ccccc4)no3)C2)c1C
  RP-LC retention time: 662 s

## COc1cccc(C2=NC3(CCN(C(=O)c4ccc5c(c4)OCO5)CC3)NC2=O)c1
  RP-LC retention time: 712 s

## O=C(NCc1ccco1)Nc1ccc([N+](=O)[O-])cc1
  RP-LC retention time: 852 s

## Cc1ccc(NC(=O)N2CCc3[nH]cnc3C2c2ccncc2)cc1Cl (configuration not stated)
  RP-LC retention time: 585 s

## CC(C)OCCCNC(=O)CN1c2ccc(Br)cc2-c2ccccc2S1(=O)=O
  RP-LC retention time: 961 s

## COc1cccc(CNC(=O)C2CCN(S(=O)(=O)c3ccc4c(c3)sc(=O)n4C)CC2)c1
  RP-LC retention time: 798 s

## CCN(CC)C(=O)C1Cn2cccc2C(=O)N1C (configuration not stated)
  RP-LC retention time: 606 s

## O=C(NCc1ccc2c(c1)OCO2)C1CCN(c2cnc3nccnc3c2)CC1
  RP-LC retention time: 659 s

## Cc1cccc(NC(=O)N2CCc3nc(C)ncc3C2)c1
  RP-LC retention time: 656 s

## CC(=O)Nc1ccc(NC(=O)c2ccc(-c3ccnc(N4CCCC4)n3)cc2)cc1
  RP-LC retention time: 663 s

## CCN1c2ccc(C)cc2C(=O)NC12CCN(C(=O)c1cccc(C)c1)CC2
  RP-LC retention time: 849 s

## CCc1nc(OCC(=O)Nc2ccc(OC)cc2OC)c2ccccc2n1
  RP-LC retention time: 788 s

## CCn1nc(CNC(=O)Cc2cccc(F)c2)c2ccccc21
  RP-LC retention time: 764 s

## Cc1noc(-c2cccc(OC3CN(C(=O)c4cccn4C)C3)c2)n1
  RP-LC retention time: 898 s

## O=C(NCCCn1c(-c2ccncc2)nc2cccnc21)Nc1ccc(F)cc1F
  RP-LC retention time: 652 s
